The results in this text go back to US20250059198A1, “BRM DEGRADING COMPOUNDS AND ASSOCIATED METHODS OF USE” (Arvinas Operations, Inc., priority 2021, published 2025).

This assay addresses T1, BRM (Homo sapiens, UniProt P51531).
T1 construct: Western Blot Screen of BRM Degradation in SW1573 Cells; endogenous in cells; host or cells: SW1573 cells
In words: BRM degradation (Dmax and DC50) in SW1573 cells, Western blot screen / In-Cell Western screen. Type of assay: cell-based. The note with it: overnight (18-20 hours) treatment; for Dmax: read-out: Dmax (%)** (% degraded). Put shortly: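 Dmax and DC50 were derived from BRM levels normalised to an alpha-tubulin control, measured by chemiluminescent Western blotting of lysates or by PFA-fixed In-Cell Western on LI-COR Odyssey. SW1573 cells received compound overnight (18–20 h, 0.1% DMSO final).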
(Immunoblotting shows a protein as a band on a membrane.)

Bounds are passed on as bounds.

T1 sequence (P51531 whole entry): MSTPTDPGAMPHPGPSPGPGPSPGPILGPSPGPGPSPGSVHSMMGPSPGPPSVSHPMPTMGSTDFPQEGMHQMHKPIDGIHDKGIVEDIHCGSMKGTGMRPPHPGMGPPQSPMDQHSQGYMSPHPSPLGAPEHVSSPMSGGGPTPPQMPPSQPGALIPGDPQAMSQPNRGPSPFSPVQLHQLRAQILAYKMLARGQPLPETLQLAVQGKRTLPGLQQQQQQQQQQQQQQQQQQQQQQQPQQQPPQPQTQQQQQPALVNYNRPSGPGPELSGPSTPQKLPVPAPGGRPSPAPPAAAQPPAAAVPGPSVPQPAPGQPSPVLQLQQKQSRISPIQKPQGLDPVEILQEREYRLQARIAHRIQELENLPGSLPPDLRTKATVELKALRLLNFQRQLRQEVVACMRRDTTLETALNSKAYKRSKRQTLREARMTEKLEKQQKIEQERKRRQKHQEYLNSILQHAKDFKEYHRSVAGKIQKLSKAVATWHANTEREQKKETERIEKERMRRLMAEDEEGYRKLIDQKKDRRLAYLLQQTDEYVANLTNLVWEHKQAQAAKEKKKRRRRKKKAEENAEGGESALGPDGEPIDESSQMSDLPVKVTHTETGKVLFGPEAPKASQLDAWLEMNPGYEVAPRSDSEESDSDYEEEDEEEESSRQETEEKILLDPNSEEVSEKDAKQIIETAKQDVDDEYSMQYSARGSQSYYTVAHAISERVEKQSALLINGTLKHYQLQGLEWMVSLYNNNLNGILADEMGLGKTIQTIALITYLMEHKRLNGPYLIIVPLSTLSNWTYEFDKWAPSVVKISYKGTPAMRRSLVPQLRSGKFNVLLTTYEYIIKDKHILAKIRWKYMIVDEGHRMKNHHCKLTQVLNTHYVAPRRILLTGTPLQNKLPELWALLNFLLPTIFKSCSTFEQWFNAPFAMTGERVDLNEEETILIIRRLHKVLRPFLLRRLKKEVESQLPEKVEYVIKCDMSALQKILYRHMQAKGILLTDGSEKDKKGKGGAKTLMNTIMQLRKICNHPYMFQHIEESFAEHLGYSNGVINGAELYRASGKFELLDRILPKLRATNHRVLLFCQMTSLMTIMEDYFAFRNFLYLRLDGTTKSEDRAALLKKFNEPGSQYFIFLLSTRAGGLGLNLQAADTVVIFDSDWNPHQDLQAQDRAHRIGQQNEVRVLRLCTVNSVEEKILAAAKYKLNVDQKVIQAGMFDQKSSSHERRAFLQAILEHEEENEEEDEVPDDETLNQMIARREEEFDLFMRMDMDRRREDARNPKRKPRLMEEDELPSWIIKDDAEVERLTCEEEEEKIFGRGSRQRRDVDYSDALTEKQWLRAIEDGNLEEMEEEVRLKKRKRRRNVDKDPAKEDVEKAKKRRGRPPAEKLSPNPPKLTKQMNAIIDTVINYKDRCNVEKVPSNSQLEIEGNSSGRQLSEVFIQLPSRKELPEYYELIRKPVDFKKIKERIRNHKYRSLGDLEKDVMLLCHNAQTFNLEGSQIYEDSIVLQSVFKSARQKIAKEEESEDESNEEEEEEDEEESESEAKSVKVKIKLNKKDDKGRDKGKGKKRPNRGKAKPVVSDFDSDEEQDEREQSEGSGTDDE

Usually DC50 stands for the midpoint of the concentration-degradation curve. Low readings indicate degradation at low concentration, high ones degradation only at high concentration. In general, Dmax refers to the largest share of the target that was removed. Consider `Cc1ncsc1-c1ccc([C@H](C)NC(=O)[C@@H]2C[C@@H](O)CN2C(=O)[C@@H](c2cc(N3CCC(CN4CCC5(CC4)CC(C#CC(C)n4cc(-c6cc(-c7ccccc7O)nnc6N)cn4)C5)CC3)no2)C(C)C)cc1` (stereo partly drawn) [Compound 36, (2S,4R)-1-[(2R)-2-[3-(4-{[2-(3-{4-[3-amino-6-(2-hydroxyphenyl)pyridazin-4-yl]-1H-pyrazol-1-yl}but-1-yn-1-yl)-7-azaspiro[3.5]nonan-7-yl]methyl}piperidin-1-yl)-1,2-oxazol-5-yl]-3-methylbutanoyl]-4-hydroxy-N-[(1S)-1-[4-(4-methyl-1,3-thiazol-5-yl)phenyl]ethyl]pyrrolidine-2-carboxamide], for which the DC50 is less than 2.5 nM and the Dmax is more than 75%.

For the molecule `Cc1ncsc1-c1ccc([C@H](C)NC(=O)C2C[C@@H](O)CN2C(=O)[C@@H](c2cc(N3CCC(CN4CC[C@H](Oc5cc(N6C7CCC6CN(c6cc(-c8ccccc8O)nnc6N)C7)ccn5)C(F)(F)C4)CC3)no2)C(C)C)cc1` (stereo in doubt) [Compound 54, (2S,4R)-1-[(2R)-2-[3-(4-{[(4S)-4-[(4-{3-[3-amino-6-(2-hydroxyphenyl)pyridazin-4-yl]-3,8-diazabicyclo[3.2.1]octan-8-yl}pyridin-2-yl)oxy]-3,3-difluoropiperidin-1-yl]methyl}piperidin-1-yl)-1,2-oxazol-5-yl]-3-methylbutanoyl]-4-hydroxy-N-[(1S)-1-[4-(4-methyl-1,3-thiazol-5-yl)phenyl]ethyl]pyrrolidine-2-carboxamide], the DC50 lay within 2.5 to 10 nM and the greatest degradation seen (Dmax) is more than 75%.

Consider `CC(C)[C@@H](C(=O)N1C[C@H](O)C[C@H]1C(=O)N[C@@H](C)c1ccc(C#N)cc1)c1cc(N2CCC(CN3CCC(O[C@H]4C[C@H](Oc5cc(N6CC7CC(C6)N7c6cc(-c7ccccc7O)nnc6N)ccn5)C4)CC3)CC2)no1` [Compound 26, (2S,4R)-N-[(1S)-1-(4-cyanophenyl)ethyl]-4-hydroxy-1-[(2R)-3-methyl-2-{3-[4-({4-[(1r,3r)-3-[(4-{6-[3-amino-6-(2-hydroxyphenyl)pyridazin-4-yl]-3,6-diazabicyclo[3.1.1]heptan-3-yl}pyridin-2-yl)oxy]cyclobutoxy]piperidin-1-yl}methyl)piperidin-1-yl]-1,2-oxazol-5-yl}butanoyl]pyrrolidine-2-carboxamide], for which the DC50 lay in the range of 2.5 to 10 nM and the greatest degradation seen (Dmax) is more than 75%.

With `Cc1ncsc1-c1ccc([C@H](C)NC(=O)[C@@H]2C[C@@H](O)CN2C(=O)[C@@H](c2cc(N3CCC(CN4CCC(O[C@H]5C[C@H](N6CCN(CC7C8CCC7CN(c7cc(-c9ccccc9O)nnc7N)C8)CC6)C5)CC4)CC3)no2)C(C)C)cc1` (stereo partly drawn) [Compound 47, (2S,4R)-4-hydroxy-N-[(1S)-1-[4-(4-methyl-1,3-thiazol-5-yl)phenyl]ethyl]-1-[(2R)-3-methyl-2-{3-[4-({4-[(1r,3r)-3-[4-({3-[3-amino-6-(2-hydroxyphenyl)pyridazin-4-yl]-3-azabicyclo[3.2.1]octan-8-yl}methyl)piperazin-1-yl]cyclobutoxy]piperidin-1-yl}methyl)piperidin-1-yl]-1,2-oxazol-5-yl}butanoyl]pyrrolidine-2-carboxamide], the DC50 lay in the range of 2.5 to 10 nM and the Dmax is more than 75%.

Turning to `Cc1ncsc1-c1ccc([C@H](C)NC(=O)[C@@H]2C[C@@H](O)CN2C(=O)[C@@H](c2cc(N3CCC(CN4CCC5(CC4)CC(N4CCO[C@@H](C(C)n6cc(-c7cc(-c8ccccc8O)nnc7N)cn6)C4)C5)CC3)no2)C(C)C)cc1` (stereo partly drawn) [Compound 89, (2S,4R)-1-[(2R)-2-{3-[4-({2-[(2R)-2-(1-{4-[3-amino-6-(2-hydroxyphenyl)pyridazin-4-yl]-1H-pyrazol-1-yl}ethyl)morpholin-4-yl]-7-azaspiro[3.5]nonan-7-yl}methyl)piperidin-1-yl]-1,2-oxazol-5-yl}-3-methylbutanoyl]-4-hydroxy-N-[(1S)-1-[4-(4-methyl-1,3-thiazol-5-yl)phenyl]ethyl]pyrrolidine-2-carboxamide], the DC50 was less than 2.5 nM and the Dmax was more than 75%.

As to `Cc1ncsc1-c1ccc([C@H](C)NC(=O)[C@@H]2C[C@@H](O)CN2C(=O)[C@@H](c2cc(N3CCC(CN4CCC5(CC4)CC(n4cc(C#Cc6cc(-c7ccccc7O)nnc6N)cn4)C5)CC3)no2)C(C)C)cc1` [Compound 63, (2S,4R)-1-[(2R)-2-[3-(4-{[2-(4-{2-[3-amino-6-(2-hydroxyphenyl)pyridazin-4-yl]ethynyl}-1H-pyrazol-1-yl)-7-azaspiro[3.5]nonan-7-yl]methyl}piperidin-1-yl)-1,2-oxazol-5-yl]-3-methylbutanoyl]-4-hydroxy-N-[(1S)-1-[4-(4-methyl-1,3-thiazol-5-yl)phenyl]ethyl]pyrrolidine-2-carboxamide], the DC50 was less than 2.5 nM and the Dmax was more than 75%.

As for `Cc1ncsc1-c1ccc([C@H](C)NC(=O)[C@@H]2C[C@@H](O)CN2C(=O)[C@@H](c2cc(N3CCC(CN4CCC5(CC4)CC(N4CCO[C@@H](CNC6CCN(c7cc(-c8ccccc8O)nnc7N)CC6)C4)C5)CC3)no2)C(C)C)cc1` [Compound 113, (2S,4R)-1-[(2R)-2-{3-[4-({2-[(2S)-2-[({1-[3-amino-6-(2-hydroxyphenyl)pyridazin-4-yl]piperidin-4-yl}amino)methyl]morpholin-4-yl]-7-azaspiro[3.5]nonan-7-yl}methyl)piperidin-1-yl]-1,2-oxazol-5-yl}-3-methylbutanoyl]-4-hydroxy-N-[(1S)-1-[4-(4-methyl-1,3-thiazol-5-yl)phenyl]ethyl]pyrrolidine-2-carboxamide], the DC50 is less than 2.5 nM and the Dmax is more than 75%.

Consider `Cc1ncsc1-c1ccc([C@H](C)NC(=O)[C@@H]2C[C@@H](O)CN2C(=O)[C@@H](c2cc(N3CCC(CN4CCC(O[C@H]5C[C@@H](N6CCC([C@H](C)n7cc(-c8cc(-c9ccccc9O)nnc8N)cn7)CC6)C5)CC4)CC3)no2)C(C)C)cc1` [Compound 8, (2S,4R)-4-hydroxy-N-[(1S)-1-[4-(4-methyl-1,3-thiazol-5-yl)phenyl]ethyl]-1-[(2R)-3-methyl-2-{3-[4-({4-[(1s,3s)-3-{4-[(1S)-1-{4-[3-amino-6-(2-hydroxyphenyl)pyridazin-4-yl]-1H-pyrazol-1-yl}ethyl]piperidin-1-yl}cyclobutoxy]piperidin-1-yl}methyl)piperidin-1-yl]-1,2-oxazol-5-yl}butanoyl]pyrrolidine-2-carboxamide], for which the DC50 was less than 2.5 nM and the Dmax is more than 75%.

With `CC(C)[C@@H](C(=O)N1C[C@H](O)C[C@H]1C(=O)N[C@@H](C)c1ccc(-c2ccnn2C)cc1)c1cc(N2CCC(CN3CCC(CN4CCC5(CC4)CC(Oc4cc(N6C7CCC6CN(c6cc(-c8ccccc8O)nnc6N)C7)ccn4)C5)CC3)CC2)no1` [Compound 39, (2S,4R)-1-[(2R)-2-[3-(4-{[4-({2-[(4-{3-[3-amino-6-(2-hydroxyphenyl)pyridazin-4-yl]-3,8-diazabicyclo[3.2.1]octan-8-yl}pyridin-2-yl)oxy]-7-azaspiro[3.5]nonan-7-yl}methyl)piperidin-1-yl]methyl}piperidin-1-yl)-1,2-oxazol-5-yl]-3-methylbutanoyl]-4-hydroxy-N-[(1S)-1-[4-(1-methyl-1H-pyrazol-5-yl)phenyl]ethyl]pyrrolidine-2-carboxamide], the DC50 is less than 2.5 nM and the Dmax was more than 75%.

Take `CC(C)[C@@H](C(=O)N1C[C@H](O)C[C@H]1C(=O)N[C@H](C)c1cc(F)c(C#N)cc1F)c1cc(N2CCC(CN3CCC(O[C@H]4C[C@H](Oc5cc(N6C7CCC6CN(c6cc(-c8ccccc8O)nnc6N)C7)ccn5)C4)CC3)CC2)no1` [Compound 3, (2S,4R)-N-[(1R)-1-(4-cyano-2,5-difluorophenyl)ethyl]-4-hydroxy-1-[(2R)-3-methyl-2-{3-[4-({4-[(1r,3r)-3-[(4-{3-[3-amino-6-(2-hydroxyphenyl)pyridazin-4-yl]-3,8-diazabicyclo[3.2.1]octan-8-yl}pyridin-2-yl)oxy]cyclobutoxy]piperidin-1-yl}methyl)piperidin-1-yl]-1,2-oxazol-5-yl}butanoyl]pyrrolidine-2-carboxamide]: the DC50 is not below 30 nM.

Regarding `Cc1ncsc1-c1ccc([C@H](CC(=O)N2CCC(CN3CCC(O[C@H]4C[C@H](Oc5cc(N6C7CCC6CN(c6cc(-c8ccccc8O)nnc6N)C7)ccn5)C4)CC3)CC2)NC(=O)[C@@H]2C[C@@H](O)CN2C(=O)[C@@H](C(C)C)N2Cc3ccccc3C2=O)cc1` [Compound 37, (2S,4R)-4-hydroxy-N-[(1S)-1-[4-(4-methyl-1,3-thiazol-5-yl)phenyl]-3-oxo-3-[4-({4-[(1r,3r)-3-[(4-{3-[3-amino-6-(2-hydroxyphenyl)pyridazin-4-yl]-3,8-diazabicyclo[3.2.1]octan-8-yl}pyridin-2-yl)oxy]cyclobutoxy]piperidin-1-yl}methyl)piperidin-1-yl]propyl]-1-[(2R)-3-methyl-2-(1-oxo-2,3-dihydro-1H-isoindol-2-yl)butanoyl]pyrrolidine-2-carboxamide], the DC50 was not below 30 nM.

The molecule `CC(C)[C@H](C(=O)N1C[C@H](O)C[C@H]1C(=O)N[C@@H](C)c1ccc(Cl)cc1)c1cc(N2CCC(CN3CCC(O[C@H]4C[C@H](Oc5cc(N6C7CCC6CN(c6cc(-c8ccccc8O)nnc6N)C7)ccn5)C4)CC3)CC2)no1` [Compound 46, (2S,4R)-N-[(1S)-1-(4-chlorophenyl)ethyl]-4-hydroxy-1-[(2S)-3-methyl-2-{3-[4-({4-[(1r,3r)-3-[(4-{3-[3-amino-6-(2-hydroxyphenyl)pyridazin-4-yl]-3,8-diazabicyclo[3.2.1]octan-8-yl}pyridin-2-yl)oxy]cyclobutoxy]piperidin-1-yl}methyl)piperidin-1-yl]-1,2-oxazol-5-yl}butanoyl]pyrrolidine-2-carboxamide] returned a DC50 not below 30 nM.
